Here are results for 16 molecules from patent US7973034B2, “Amide, aryl sulfonamide, aryl urea, and α,β-diketone derived carboxylesterase inhibitors, and their methods of use” (priority 2003, dated 2011).

The target in test [1] is T1, human acetylcholinesterase (hAcChE) (Homo sapiens, UniProt P22303).
T1 construct: purchased Sigma Biochemicals (St. Louis, Mo.)
Kind of test: biochemical. In kind it is biochemical. The method, then: Data was transferred to GraphPad Prism software, and Ki values were calculated as described in the Example above.

Test [2] addresses T2, human small intestine carboxylesterase (hiCE) (Homo sapiens, UniProt O00748).
T2 sequence (O00748 27-559): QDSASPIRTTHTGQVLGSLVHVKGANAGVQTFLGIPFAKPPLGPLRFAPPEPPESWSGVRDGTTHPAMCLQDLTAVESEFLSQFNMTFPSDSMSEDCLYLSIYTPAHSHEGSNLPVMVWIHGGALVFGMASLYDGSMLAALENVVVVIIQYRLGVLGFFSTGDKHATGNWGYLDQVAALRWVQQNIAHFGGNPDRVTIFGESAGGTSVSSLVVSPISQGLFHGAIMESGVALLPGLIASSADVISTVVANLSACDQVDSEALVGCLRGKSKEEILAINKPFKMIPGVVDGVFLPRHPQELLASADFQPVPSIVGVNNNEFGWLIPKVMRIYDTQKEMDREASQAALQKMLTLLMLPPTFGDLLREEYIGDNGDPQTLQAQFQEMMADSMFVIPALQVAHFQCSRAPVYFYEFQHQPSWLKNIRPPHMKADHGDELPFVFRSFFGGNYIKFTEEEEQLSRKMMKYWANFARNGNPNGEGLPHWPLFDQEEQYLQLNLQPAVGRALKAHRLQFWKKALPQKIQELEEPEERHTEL
Nature of the test: biochemical. The format is biochemical. Particulars: o-NPA as substrate; Table 5; read-out: Ki hiCE.

Test [3] addresses T3, human liver carboxylesterase (hCE1) (Homo sapiens, UniProt P23141).
T3 sequence (P23141 18-567): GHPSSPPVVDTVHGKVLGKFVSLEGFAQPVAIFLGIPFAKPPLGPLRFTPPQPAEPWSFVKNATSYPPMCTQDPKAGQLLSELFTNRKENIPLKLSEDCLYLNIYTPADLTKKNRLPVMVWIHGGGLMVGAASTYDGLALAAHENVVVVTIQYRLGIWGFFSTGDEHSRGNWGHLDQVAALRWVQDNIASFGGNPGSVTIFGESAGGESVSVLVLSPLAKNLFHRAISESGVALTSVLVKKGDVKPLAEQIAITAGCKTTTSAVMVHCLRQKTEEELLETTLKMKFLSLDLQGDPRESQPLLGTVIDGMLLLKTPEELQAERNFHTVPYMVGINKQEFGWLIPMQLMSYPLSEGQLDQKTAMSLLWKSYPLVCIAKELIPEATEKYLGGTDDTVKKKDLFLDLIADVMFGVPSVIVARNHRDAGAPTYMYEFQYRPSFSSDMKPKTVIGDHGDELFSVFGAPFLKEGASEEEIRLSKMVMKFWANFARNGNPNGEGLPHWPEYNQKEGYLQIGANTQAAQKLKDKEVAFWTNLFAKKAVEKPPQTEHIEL
Nature of the test: biochemical. In kind it is biochemical. The following applies: o-NPA as substrate.

Test [4] concerns the target T4, human intestinal carboxylesterase in U373MGhiCE cells (Homo sapiens, UniProt O00748).
T4 construct: expressed in transfected cells; host or cells: U373MG human glioma cells (U373MGhiCE)
T4 sequence (O00748 27-559): T2 sequence (O00748 27-559)
Nature of the test: Inhibition of intracellular carboxylesterase in U373MGhiCE cells. In kind it is cell-based. Here is the method: To monitor the ability of the compounds to cross the cell membrane and inhibit carboxylesterase activity intracellularly, an assay using human tumor cells expressing hiCE was devised. U373MGhiCE (a human glioma cell line transfected with a plasmid expressing hiCE) were plated in T25 flasks and allowed to grow to confluency (approximately 2-5×10^5 cells). Inhibitors were then added at a final concentration of […], and incubation allowed to continue for 1 hour. At this time, the cells were washed extensively with 5 ml of complete media and 2×5 ml of Hanks balanced salt solution, and cell extracts were prepared. Carboxylesterase activity was then determined using o-NPA as a substrate.
Table 8 sets forth the level of intracellular enzyme inhibition following incubation of human glioblastoma tumor cells expressing human intestinal carboxylesterase with 10 μM of each compound identified in Table 3.

The test system of a further test is carboxylesterases. Nature of the test: General carboxylesterase inhibition. The format is biochemical. The method, then:
Carboxylesterase (CE) inhibition was determined by a spectroscopic assay using o-nitrophenyl acetate (o-NPA) as a substrate. Recombinant CEs produced from expression in Spodoptera frugiperda Sf9 insect cells via baculovirus were purified from serum-free culture media for the enzyme inhibition studies. Enzymes were incubated in 200 μl of 50 mM Hepes (pH 7.4) containing 3 mM o-NPA. Conversion of the o-NPA to nitrophenol was monitored by measuring the change in the absorbance at 420 nm. Absorbance readings were taken every 15 seconds for 2 minutes, and data transferred to a computer data spreadsheet. […] The final DMSO concentration was always 1% or less. […] The above procedure was then repeated using the same assay, with inhibitor concentrations ranging from 1 nM to 100 μM. Results were then transferred to Prism software (GraphPad Software, Inc., San Diego, Calif.) and Ki values determined using sigmoidal curve fits of the data. Routinely, all analyses were performed in duplicate, and Ki values determined using at least 8 inhibitor concentrations.

Test [5] addresses T5, rabbit liver carboxylesterase (rCE) (Oryctolagus cuniculus, UniProt P12337).
T5 sequence (P12337 19-565): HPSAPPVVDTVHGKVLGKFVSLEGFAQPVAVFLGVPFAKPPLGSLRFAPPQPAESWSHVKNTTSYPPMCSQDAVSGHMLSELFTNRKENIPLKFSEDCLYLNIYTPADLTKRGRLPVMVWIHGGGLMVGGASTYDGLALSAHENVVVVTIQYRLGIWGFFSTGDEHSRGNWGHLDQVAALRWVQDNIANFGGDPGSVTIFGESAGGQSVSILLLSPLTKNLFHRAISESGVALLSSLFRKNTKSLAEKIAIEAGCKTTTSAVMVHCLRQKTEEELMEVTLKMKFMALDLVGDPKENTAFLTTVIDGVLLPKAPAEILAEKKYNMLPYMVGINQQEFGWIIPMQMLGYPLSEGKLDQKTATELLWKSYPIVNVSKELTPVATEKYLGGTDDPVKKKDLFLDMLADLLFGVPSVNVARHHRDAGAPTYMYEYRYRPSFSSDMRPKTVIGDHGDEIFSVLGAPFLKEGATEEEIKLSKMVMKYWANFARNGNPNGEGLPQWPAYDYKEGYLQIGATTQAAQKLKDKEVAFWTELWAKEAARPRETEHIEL
Nature of the test: biochemical. In kind it is biochemical. Particulars: o-NPA as substrate; Table 6; read-out: rCE Ki ± SE.

Test [6] concerns the target human butyrylcholinesterase (hBuChE) (Homo sapiens, UniProt P06276). Kind of test: biochemical.
Setting [7] is: acetylthiocholine substrate, Table 5, read-out: Ki hAcChE.
Where [8] appears, read: acetylthiocholine as substrate, Table 6, read-out: hAcChE Ki.
Setting [9] is: Table 6, read-out: hCE1 Ki ± SE.
Where [10] appears, read: butyrylthiocholine as substrate, Table 6, read-out: hBuChE Ki.

Read-outs that look alike come from different tables or passages of the source.

human butyrylcholinesterase (hBuChE), sequence (P06276 29-602): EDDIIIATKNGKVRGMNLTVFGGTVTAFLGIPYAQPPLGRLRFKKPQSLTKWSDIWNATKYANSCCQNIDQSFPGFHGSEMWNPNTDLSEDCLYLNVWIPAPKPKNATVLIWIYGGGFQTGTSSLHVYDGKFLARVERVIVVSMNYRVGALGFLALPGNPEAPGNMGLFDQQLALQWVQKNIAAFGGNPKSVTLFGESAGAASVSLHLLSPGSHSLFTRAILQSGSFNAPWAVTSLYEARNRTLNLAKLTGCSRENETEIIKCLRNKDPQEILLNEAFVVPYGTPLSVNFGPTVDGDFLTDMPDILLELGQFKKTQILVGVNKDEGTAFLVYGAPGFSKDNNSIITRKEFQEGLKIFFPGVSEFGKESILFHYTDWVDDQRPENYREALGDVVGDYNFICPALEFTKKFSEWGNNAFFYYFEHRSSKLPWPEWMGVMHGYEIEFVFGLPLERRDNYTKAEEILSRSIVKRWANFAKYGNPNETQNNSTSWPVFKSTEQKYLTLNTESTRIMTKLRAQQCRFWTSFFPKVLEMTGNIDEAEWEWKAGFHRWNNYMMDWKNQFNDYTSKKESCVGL
T1 sequence (P22303 32-614): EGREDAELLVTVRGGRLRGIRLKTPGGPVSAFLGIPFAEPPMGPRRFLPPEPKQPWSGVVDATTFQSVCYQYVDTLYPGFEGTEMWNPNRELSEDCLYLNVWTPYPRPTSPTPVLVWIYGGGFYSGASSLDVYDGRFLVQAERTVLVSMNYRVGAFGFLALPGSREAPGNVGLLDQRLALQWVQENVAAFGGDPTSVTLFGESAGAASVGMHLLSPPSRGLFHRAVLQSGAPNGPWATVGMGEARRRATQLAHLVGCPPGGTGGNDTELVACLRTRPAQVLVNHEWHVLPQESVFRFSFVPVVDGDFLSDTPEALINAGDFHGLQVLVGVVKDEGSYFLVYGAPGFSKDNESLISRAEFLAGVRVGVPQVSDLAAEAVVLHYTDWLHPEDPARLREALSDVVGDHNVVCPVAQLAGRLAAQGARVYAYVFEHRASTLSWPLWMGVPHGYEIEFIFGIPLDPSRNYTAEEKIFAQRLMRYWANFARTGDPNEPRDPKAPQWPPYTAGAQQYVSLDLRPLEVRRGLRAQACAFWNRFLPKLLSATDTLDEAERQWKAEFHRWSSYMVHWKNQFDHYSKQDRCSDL

One may read the Ki as the dissociation constant of the complex between target and ligand, obtained from inhibition or displacement. What is called inhibition is the change of the read-out against control, counted positive when it falls. A higher inhibition goes with strong suppression. On to `COc1cc(OC)c(NC(=O)c2cc3ccccc3cc2O)cc1Cl` [Compound 42, N-(5-chloro-2,4-dimethoxyphenyl)-3-hydroxy-2-naphthamide], for which the Ki in test [1] (setting [7]) was over 100000 nM; in test [2] it was 159 nM; in test [3] (Table 5, read-out: Ki hCE1), over 100000 nM. The inhibition at 10 µM in test [4] turned out to be 0%.
On to `O=C(C(=O)c1cc(F)cc(F)c1)c1cc(F)cc(F)c1` [Compound 19, 1,2-bis(3,5-difluorophenyl)ethane-1,2-dione], for which, in the test with carboxylesterases, the “found to be general carboxylesterase inhibitors” value was “general carboxylesterase inhibitors”.
On the same count and under the same terms, to `O=C(C(=O)c1cc(F)c(F)c(F)c1)c1cc(F)c(F)c(F)c1` [Compound 20, 1,2-bis(3,4,5-trifluorophenyl)ethane-1,2-dione] belongs “general carboxylesterase inhibitors”.
Turning to `O=C(NC(Cc1ccccc1)C(=O)Oc1ccc2ccccc2c1)c1ccccc1` (stereo not shown) [Compound 57, 2-Benzoylamino-3-phenyl-propionic acid naphthalene-2-yl ester], the Ki in test [1] (setting [7]) was over 100000 nM; in test [2], 61 nM; in test [3] (Table 5, read-out: Ki hCE1) it was over 100000 nM. Further, 10 µM produced 24.2% inhibition in test [4].
In the case of `COc1ccc(C(=O)C(=O)c2ccccc2)cc1` [Compound 6, 1-(4-methoxyphenyl)-2-2phenylethane-1,2-dione], the Ki in test [1] (setting [8]) is over 100000 nM; in test [5] it was 200 ± 60 nM; in test [3] (setting [9]), 175 ± 8.5 nM; in test [6], over 100000 nM. For the same molecule, the “found to be general carboxylesterase inhibitors” value with carboxylesterases was “general carboxylesterase inhibitors”.
`O=C(C(=O)c1cccs1)c1cccs1` [Compound 23, 1,2-dithien-2-yl-ethane-1,2-dione]: in the test on carboxylesterases, the “found to be general carboxylesterase inhibitors” value is given as “general carboxylesterase inhibitors”.
Consider `Cc1ccc(C(=O)C(=O)c2ccccc2)cc1[N+](=O)[O-]` [Compound 7, 1-(4-methyl-3-nitrophenyl)-2-phenylethane-1,2-dione], for which the Ki is over 100000 nM in test [1] (setting [8]), 11.9 ± 1.1 nM in test [5], 295 ± 9.6 nM in test [3] (setting [9]) and over 100000 nM in test [6]. In addition, in the test on carboxylesterases, the “found to be general carboxylesterase inhibitors” value is given as “general carboxylesterase inhibitors”.
Consider `Cc1ccc(C(=O)C(=O)c2ccc(Cl)cc2)cc1` [Compound 22, 1-(4-chlorophenyl)-2-(4-methylphenyl)ethane-1,2-dione], for which the Ki in test [5] is 16.2 ± 1.7 nM; in test [3] (setting [9]) it was 160 ± 32 nM; in test [6], over 100000 nM. Further, the “found to be general carboxylesterase inhibitors” value in the test on carboxylesterases is “general carboxylesterase inhibitors”.
As for `O=C(C(=O)c1ccc([N+](=O)[O-])cc1)c1ccccc1` [Compound 14, 1-(4-nitrophenyl)-2-phenylethane-1,2-dione], the Ki in test [1] (setting [8]) was over 100000 nM; in test [5], 21.7 ± 2.5 nM; in test [3] (setting [9]), 215 ± 24 nM; in test [6], over 100000 nM. Also, the “found to be general carboxylesterase inhibitors” value in the test on carboxylesterases is given as “general carboxylesterase inhibitors”.
Regarding `Cc1cccc(C)c1NC(=O)Nc1ccc([N+](=O)[O-])cc1` [Compound 54, N-(2,6-dimethylphenyl)-N′-(4-nitrophenyl)urea], the Ki is over 100000 nM in test [1] (setting [7]); 320 nM in test [2]; over 100000 nM in test [3] (Table 5, read-out: Ki hCE1). Testing at 10 µM in test [4] gave an inhibition of 0%.
Turning to `O=C(O)c1ccc(C(=O)C(=O)c2ccccc2)cc1` [Compound 1, 4-[oxo(phenyl)acetyl]benzoic acid], the Ki in test [1] (setting [8]) is over 100000 nM; in test [5] it was 64 ± 6.2 nM; in test [3] (setting [9]), 524 ± 46 nM; in test [6] (setting [10]), over 100000 nM. For the same molecule, the “found to be general carboxylesterase inhibitors” value in the test on carboxylesterases was “general carboxylesterase inhibitors”.
`O=C(C(=O)c1ccc(CBr)cc1)c1ccccc1` [Compound 3]: the Ki in test [5] was 15 ± 1.6 nM; in test [3] (setting [9]) it was 77.6 ± 5.5 nM; in test [6], over 100000 nM. For the same molecule, the “found to be general carboxylesterase inhibitors” value with carboxylesterases is “general carboxylesterase inhibitors”.
Take `Cc1cc([N+](=O)[O-])ccc1NC(=O)Nc1ccccc1` [Compound 56, N-(2-methyl-4-nitrophenyl)-N′-phenylurea]: the Ki was over 100000 nM in test [1] (setting [7]); 1520 nM in test [2]; over 100000 nM in test [3] (Table 5, read-out: Ki hCE1). The molecule also yielded an inhibition at 10 µM in test [4] of 0%.
On to `Cc1ccc(C(=O)C(=O)c2ccc(C)cc2)cc1` [Compound 17, 1,2-bis(4-methylphenyl)ethane-1,2-dione], for which the Ki was over 100000 nM in test [1] (setting [8]), 49.6 ± 6.8 nM in test [5], 532 ± 35 nM in test [3] (setting [9]) and over 100000 nM in test [6] (setting [10]). Further, the “found to be general carboxylesterase inhibitors” value with carboxylesterases is recorded as “general carboxylesterase inhibitors”.
`O=C(C(=O)c1ccc(F)cc1)c1ccc(F)cc1` [Compound 16, 1,2-bis(4-fluorophenyl)ethane-1,2-dione]: the “found to be general carboxylesterase inhibitors” value with carboxylesterases is “general carboxylesterase inhibitors”.
For `Cc1ccc(C(=O)C(=O)c2ccccc2)cc1C` [Compound 5, 1-(3,4-dimethylphenyl)-2-phenylethane-1,2-dione], the inhibitory constant (Ki) was over 100000 nM in test [1] (setting [8]), 108 ± 8.8 nM in test [5], 99.1 ± 10 nM in test [3] (setting [9]) and over 100000 nM in test [6]. Also, in the test on carboxylesterases, the “found to be general carboxylesterase inhibitors” value is on record as “general carboxylesterase inhibitors”.
